Assay results as given in patent publication US8829197B2, “Salts and polymorphs of desazadesferrithiocin polyether analogues as metal chelation agents” (FerroKin Biosciences, Inc., priority 2008, dated 2014).
Like-named read-outs stand apart in the source and are kept apart here.

What was measured:
[1] = iron-loaded Cebus apella, mean ± SEM, cited from earlier work
[2] = non-iron-overloaded rats, mean ± SEM, cited from earlier work
[3] = Iron clearing efficiency in non-iron-overloaded, bile duct-cannulated rats (dose response po; po versus sc); assay type: in vivo, male Sprague-Dawley rats; conditions: mean ± SEM
Procedure: Cebus apella monkeys were obtained from World Wide Primates (Miami, Fla.). Male Sprague-Dawley rats were procured from Harlan Sprague-Dawley (Indianapolis, Ind.). Ultrapure salts were obtained from Johnson Matthey Electronics (Royston, UK). All hematological and biochemical studies were performed by Antech Diagnostics (Tampa, Fla.).
Cannulation of Bile Duct in Non-Iron-Overloaded Rats. The cannulation has been described previously in Bergeron, R J et al., Blood 1993, 81, 2166-2173 and Bergeron, R J et al., Ann. N.Y Acad.Sci. 1990, 612, 378-393. Bile samples were collected from male Sprague—Dawley rats (400-450 g) at 3 h intervals for 24 h. The urine sample was taken at 24 h. Sample collection and handling are as previously described. 57'58
Drug Preparation and Administration. In the iron clearing experiments the rats were given a single 50, 150, or 300 mol/kg dose of the drugs po and/or sc. The compounds were administered as a solution in water, 300 mol/kg dose only or (2) as the monosodium salt of the compound of interest (prepared by addition of the free acid to 1 equivalent of NaOH). The chelators were given to the monkeys po and sc at a dose of 150 tmol/kg. The drugs were prepared as for the rats; 2 was given po and sc as a solution in water.
Calculation of Iron Chelator Efficiency. ICE is calculated by dividing the actual amount of iron cleared by a given compound by the theoretical amount that should be cleared. The theoretical iron outputs of the chelators were generated on the basis of a 2:1 ligand:iron complex. The efficiencies in the rats and monkeys were calculated as set forth in Bergeron, R J et al., J. Med. Chem. 1999, 42, 2432-2440. Data are presented as the mean+the standard error of the mean; p-values were generated via a one-tailed Student's 1-test in which the inequality of variances was assumed; and a p-value of <0.05 was considered significant.
Chelator-Induced Iron Clearance and Iron Clearing Efficiency in Non-Iron-Overloaded Rodents Dose Response Studies. Because there is a limited amount of chelatable iron available in an animal at any given time, the iron clearance, and therefore iron-clearing efficiency of a ligand, is saturable. The key to managing this phenomenon can be found in the ferrokinetics and the dose-response properties of the ligand. In this regard, the dose-response along with the corresponding ferrokinetics of each compound given po were evaluated in the non-iron-overloaded, bile duct-cannulated rodent model.
Iron-Clearing Efficiency in Non-Iron-Overloaded Rodents and Iron-Loaded Primates: Oral versus Subcutaneous Administration. A similar protocol was carried out to confirm consistence of results and compare the effects of the compounds across species. Cebus apella monkeys and male Sprague-Dawley rats were used, 3-8 per group.

COCCOCCOCCOc1cccc(C2=N[C@@](C)(C(=O)O)CS2)c1O [(S)-3′-HO-DADFT, (S)-4,5-dihydro-2-[2-hydroxy-3-(3,6,9-trioxadecyloxy)phenyl]-4-methyl-4-thiazolecarboxylic acid]
Primate ICE @ 150 μmol/kg ([1]; po): 23.0 ± 4.1% | Primate ICE @ 150 μmol/kg ([1]; sc): 21.5 ± 3.2% | Rodent ICE @ 300 μmol/kg ([2]; po): 10.6 ± 4.4% | Rodent ICE @ 300 μmol/kg ([2]; sc): 13.4 ± 4.5% | Iron-Clearing Efficiency (%) ([3]; dose 50 μmol/kg): 20.7 ± 4.4% | Iron-Clearing Efficiency (%) ([3]; dose 150 μmol/kg): 18.7 ± 2.9% | Iron-Clearing Efficiency (%) ([3]; dose 300 μmol/kg): 10.6 ± 4.4%

C[C@]1(C(=O)O)CSC(c2ccc(O)cc2O)=N1 [(S)-4′-HO-DADFT]
Primate ICE @ 150 μmol/kg ([1]; sc): 30.4 ± 7.2% | Rodent ICE @ 300 μmol/kg ([2]; po): 5.5 ± 1.9% | Rodent ICE @ 300 μmol/kg ([2]; sc): 8.7 ± 2.6% | Iron-Clearing Efficiency (%) ([3]; dose 50 μmol/kg): 21.7 ± 3.5% | Iron-Clearing Efficiency (%) ([3]; dose 150 μmol/kg): 11.2 ± 4.2% | Iron-Clearing Efficiency (%) ([3]; dose 300 μmol/kg): 5.5 ± 1.9%

C[C@]1(C(=O)O)CSC(c2ccc(O)cc2O)=N1 [Deferitrin, (S)-2-(2,4-dihydroxyphenyl)-4,5dihydro-4-methyl-4-thiazolecarboxylic acid, reference compound]
Primate ICE @ 150 μmol/kg ([1]; po): 16.8 ± 7.2% | Primate ICE @ 150 μmol/kg ([1]; sc): 15.9 ± 2.7% | Rodent ICE @ 300 μmol/kg ([2]; po): 1.1 ± 0.8% | Rodent ICE @ 300 μmol/kg ([2]; sc): 1.1 ± 0.6% | Iron-Clearing Efficiency (%) ([3]; dose 150 μmol/kg): 1.5 + 1.7% | Iron-Clearing Efficiency (%) ([3]; dose 300 μmol/kg): 1.1 ± 0.8%
